From patent US9962362B2, “Use of small molecule inhibitors targeting EYA tyrosine phosphatase” (CHILDREN'S HOSPITAL MEDICAL CENTER, priority 2012, dated 2018)

Legend:
PTP1B = PTP1B (Homo sapiens (Human), UniProt P18031); assay: PTP1B-catalyzed pNPP hydrolysis; type: biochemical; conditions: EYA3 vs PTP1B
Protocol: The catalytic domain of human Eya2 (“hEYA2(ED)”) was similarly sub-cloned as a polyhistidine fusion construct in the vector pDEST-527. Fusion protein was purified by NiNTA chromatography and followed by size-exclusion chromatography over a Superdex-75 column. The relative purity of protein samples was determined using SDS-PAGE. PTP1B was purified as described previously (Rayapureddi, J. P. et al. Nature 426, 295-298 (2003), incorporated by reference in its entirety).
(§1) Screening Methods. An inhibitory assay was conducted using the previously described p-nitrophenylphosphate assay (Rayapureddi, J. P. et al. Nature 426, 295-298 (2003)). Briefly, ED was incubated in a reaction mixture containing 20 mM MES pH 6, 2 mM MgCl2, 125 μM inhibitor, 3.4 mM para-nitrophenol phosphate (pNPP) and 0.01 μg/μL enzyme.
PTP1B is a classical Cys-based tyrosine phosphatase.

HUVECs [1] = assay: HUVEC tubulogenesis on matrigel; type: cell-based, human; conditions: 7.5 μM (highest concentration tested)
Protocol: The EYA inhibitors were also tested in tubulogenesis assays. The tubulogenesis assays were performed in 15-well micro-slide (ibidi LLC, Verona Wis.), using growth factor-reduced matrigel (BD Bioscience, Billerica, Mass.). The matrix was prepared by loading 10 μl of matrigel in each micro-slide well and allowing it to solidify for 30 minutes at 37° C. HUVECs were trypsinized and resuspended at 100,000 cell/ml in EBM+2.5% FBS. 50 μl (5,000 cell) were loaded on top of the solidified matrigel and the preparation was incubated for 20 hours at 37° C. in a humidified incubator in a 5% CO2 atmosphere. Bright field images were taken using an inverted microscope at 2.5× magnification, which allowed imaging of the whole well in two pictures that were later merged in Photoshop. Tubular structures were traced and counted using NeuroJ (NIH, USA). In experiments with inhibitor, the inhibitor was added to the cell suspension before loading. Each sample was loaded in triplicate, and each treatment was repeated for reproducibility.

[2] = system: A673 (Ewings sarcoma) cells; assay: Mouse xenograft model of Ewings sarcoma; type: in vivo; conditions: A673 xenograft in nude mice
Protocol: The affect of EYA inhibitors on a mouse xenograft model of Ewings sarcoma was tested. 5×10^6 A673 (Ewings sarcoma) cells in 0.1 ml sterile matrigel were injected subcutaneously into the dorsal flank region of nude mice. Approximately 5 days after injection, the tumors were about 100-300 mm^3. […] The dose for intra-peritoneal injections was 25 mg/kg/day. The tumor size was monitored every other day. Animals were sacrificed after 2 weeks, or when tumor volume approached 10% of animal weight.

EYA3-SIX2 interaction = EYA3-SIX2 interaction (Homo sapiens (Human), UniProt Q99504); assay: His-SIX2 pull-down of EYA3 on Ni-NTA; type: binding; conditions: 50 μM, 15 minutes
EYA3-SIX2 interaction, sequence (Q99504 whole entry, looked up, stated change not applied): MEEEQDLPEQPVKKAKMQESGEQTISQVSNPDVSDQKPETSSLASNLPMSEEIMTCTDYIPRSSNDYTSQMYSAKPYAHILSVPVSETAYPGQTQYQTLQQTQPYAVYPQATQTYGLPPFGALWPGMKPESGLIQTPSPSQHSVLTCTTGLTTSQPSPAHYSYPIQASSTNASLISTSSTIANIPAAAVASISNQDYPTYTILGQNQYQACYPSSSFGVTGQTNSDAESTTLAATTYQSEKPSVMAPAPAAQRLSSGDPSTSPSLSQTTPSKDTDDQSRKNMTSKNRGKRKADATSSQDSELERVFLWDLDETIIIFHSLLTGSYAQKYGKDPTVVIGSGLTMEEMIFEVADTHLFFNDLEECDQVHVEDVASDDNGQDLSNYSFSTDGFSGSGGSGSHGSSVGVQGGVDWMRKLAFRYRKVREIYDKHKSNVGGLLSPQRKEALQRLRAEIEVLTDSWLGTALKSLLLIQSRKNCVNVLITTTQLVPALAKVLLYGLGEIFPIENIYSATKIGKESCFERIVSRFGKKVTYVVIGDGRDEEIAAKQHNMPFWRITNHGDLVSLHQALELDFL
EYA3-SIX2 interaction, sequence (Q9NPC8 whole entry partner, looked up): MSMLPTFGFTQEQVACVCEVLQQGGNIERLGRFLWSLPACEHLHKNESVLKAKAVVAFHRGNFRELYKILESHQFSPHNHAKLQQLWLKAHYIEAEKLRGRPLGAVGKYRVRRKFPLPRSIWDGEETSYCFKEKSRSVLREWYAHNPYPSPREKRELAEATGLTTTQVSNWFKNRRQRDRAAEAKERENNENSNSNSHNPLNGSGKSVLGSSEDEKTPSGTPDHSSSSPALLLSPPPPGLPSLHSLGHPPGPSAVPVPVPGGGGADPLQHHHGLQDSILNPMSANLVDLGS
From the text: Each point represents the mean and standard deviation of two independent readings. (C) Plots of Vmax and Km as a function of inhibitor concentration. […] The mixture was loaded on a Ni-NTA column. Beads were washed with 3 column volumes of load buffer (last washes, lanes 2 and 6). Proteins retained on the beads are shown in lanes 3 and 7. Lanes 4 and 8 are molecular weight markers.
One function of the catalytic domain of the EYAs is to mediate its interaction with the SIX proteins. This complex then translocates to the nucleus where the SIX-EYA complex can activate transcription.

MCF10A-EYA2 cells = assay: Transwell migration of MCF10A-EYA2 cells; type: cell-based; conditions: for migration of MCF10A(EYA2) cells: 7.5 μM
From the text: The tyrosine phosphatase activity of Eya3 and Eya2 promotes single cell motility in breast cancer cells (Pandey, R. N. et al. Oncogene (2010) 29:3715-3722, incorporated by reference in its entirety). EYA2 is over-expressed in breast cancers and is associated with increased metastasis and a poorer outcome (Farabaugh, et al. Oncogene (2011) 259). […] Overexpression of EYA2, but not the tyrosine-phosphatase dead mutant, promoted cell motility (FIG. 2a). […] This effect was dose-dependent (FIG. 2d) and compound (1a) was able to reduce cell motility by over 50% at the lowest concentration (1 μM) tested.
In order to determine whether EYA3 knock down would affect cell migration, a modified Boyden chamber assay was used to measure HUVEC migration. Briefly, human umbilical vein endothelial cells (HUVECs) were purchased from Lonza (Walkersville, Md.) and maintained in the endothelial cell growth medium (PromoCell, Heidelberg, Germany), under a 5% CO2 atmosphere. MCF10A cells from ATCC were stably transfected with either pcDNA 3.2N5-DEST (vector control), V5-EYA2 or V5-EYA2(D250N). Transwell migration experiments were performed as previously described (Pandey, R. N. et al. Oncogene 29, 3715-3722, (2010)).

[3] = system: developing zebrafish vasculature; assay: Zebrafish model of angiogenesis; type: in vivo; conditions: for defects in the developing vasculature / number of intersegmental vessels: varying doses; for defects in the developing vasculature: exposure from 5.25 hpf, analysis at 24 hpf
Protocol: Embryos (FLK1-GFP trangenic) were maintained in fish water until the 50% epiboly stage (5.25 hpf) and were transferred into wells of 24-well plate containing the inhibitors in fish water. The analysis for vascular defects was performed after the 24 hpf stage, and embryos were imaged using a fluorescence microscope.
Transgenic fish expressing EGFP in endothelial cells (Tg(flk1:EGFP)) were used to facilitate visualization of the developing vasculature. In control experiments embryos were treated with 0.1% DMSO (vehicle). At the time of analyses (24 hpf) developing vessels normally migrated from the lateral plate mesoderm to the midline and formed the vascular cord, subsequently forming the dorsal aorta and the posterior cardinal vein and followed by the formation of intersegmental vessels at designated branch points (FIG. 6b).

[4] = system: retinal neovascularization; assay: Mouse model of oxygen-induced retinopathy; type: in vivo; conditions: 100 or 50 pmoles injected at P12, analyzed at P16
From the text: The mouse model of oxygen-induced retinopathy mimics the retinopathy characteristic of proliferative retiopathy conditions such as retinopathy of prematurity and diabetic retinopathy. […] The resulting retinal hypoxia after day 12, when pups were brought back to 20% O2, induced excessive hypoxia-driven angiogenesis. A characteristic large avascular area at the center of the retina and excessive regrowth of superficial vessels (pre-retinal neovascular tufts) in the mid-peripheral region was observed. […] In contrast, inhibition of either Vegf or Vegfr2 in OIR experiments suppresses both neovascular tuft formation and revascularization.

HUVECs [5] = assay: HUVEC proliferation (MTT); type: cell-based, human; conditions: 5 μM, 24 hours
mouse aortic rings = assay: Aortic ring sprouting angiogenesis assay; type: cell-based; conditions: 5 μM, 10 days, VEGF-stimulated
Protocol: Endothelial cell migration can also be studied ex vivo using the aortic ring assay in which sprouting angiogenesis is monitored by the formation of vascular sprouts outside the wall of mouse aortic rings incubated in collagen matrix and stimulated by VEGF (Gerhardt, H., et al. EXS, 3-15 (2005), hereby incorporated by reference in its entirety). Briefly, mice were obtained from the Cincinnati Children's veterinary service and handled according to the institutional animal care and use protocol. […] Mice were 4 to 6 weeks old female C57BL16, and aortic ring explants were cultured at 37° C. in a humidified incubator under a 5% CO2 atmosphere.
Each inhibitor was serially diluted (between 0.25 mM and 7.5 mM) to stocks of 1000× the working concentrations in sterile 100% DMSO in order to achieve an equal final concentration of DMSO (0.1% v/v) in all culture conditions. For the experiments, the compounds were diluted in EBM containing 2.5% FBS, penicillin/streptomycin and 20 ng/ml VEGF165 (R&D Systems, Minneapolis, Minn.). Each compound was applied from the first day of culture over a 10-day period with medium change every two days. In all experiments, the vehicle (DMSO, 0.1%) was used as control. The sprouting density was derived from counting the number of branches per ring, and the extent of angiogenic sprouting was estimated by measuring the total surface area covered by the vessels as illustrated in FIG. 7.

[6] = molecular target: full-length human recombinant EYA3 (Homo sapiens (Human), UniProt Q99504); assay: pNPP phosphatase assay, full-length EYA3; type: biochemical
full-length human recombinant EYA3, sequence (Q99504 127-573): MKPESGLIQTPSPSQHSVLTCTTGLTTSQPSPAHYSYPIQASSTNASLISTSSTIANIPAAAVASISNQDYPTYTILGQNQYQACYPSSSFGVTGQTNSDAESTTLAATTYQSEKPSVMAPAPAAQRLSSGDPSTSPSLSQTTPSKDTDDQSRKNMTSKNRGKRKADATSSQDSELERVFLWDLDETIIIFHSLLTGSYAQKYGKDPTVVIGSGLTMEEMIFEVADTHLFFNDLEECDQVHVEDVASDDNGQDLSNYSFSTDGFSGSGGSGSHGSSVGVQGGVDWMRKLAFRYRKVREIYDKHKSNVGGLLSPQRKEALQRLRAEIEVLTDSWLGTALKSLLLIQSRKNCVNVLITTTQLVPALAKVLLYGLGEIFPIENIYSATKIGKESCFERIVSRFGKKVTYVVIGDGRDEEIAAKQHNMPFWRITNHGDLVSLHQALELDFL
From the text: The catalytic domain of mouse Eya3 (“ED”, comprising residues 223-510 of Eya3) was purified as described by Rayapureddi, J. P. et al. (FEBS Lett 580, 3853-3859 (2006), incorporated by reference in its entirety). For full-length Eya3 (“hEYA3”), human Eya3 isoform 2 (representing the major species identified in human cell lines by mass spectrometry, expressed as residues 127-573 of NM_001990, isoform 1) was sub-cloned into pDEST565 to express a poly-histidine-Glutathione-S-transferase (His-GST) tagged fusion protein with a TVMV protease site. The protein was purified by glutathione-S-transferase affinity chromatography followed by TVMV cleavage, Ni-NTA chromatography, and finally size exclusion chromatography.
as §1
The compounds were then tested using full-length human recombinant, purified EYA3 and pNPP as a substrate. Compounds were dissolved in DMSO and diluted as needed. […] Reactions were incubated at 30° C. for 30 minutes and quenched with 100 mM EDTA pH 10. IC50 values were then calculated directly from regression curves using PRISM software. […]

retinal vasculature = assay: Post-natal retinal angiogenesis in mice; type: in vivo, mouse; conditions: 100 μM injected into eyes at P0.5 and P3, P5 retinas
Protocol: Next, retinal blood vessel density and angiogenic extension were studied using induced deletion of Eya3 in mice by PDGFB-icreERT2 starting at the day of birth. Isolectin labeled retinal blood vessels at postnatal day 5 in control Eya3fl/fl (FIGS. 8b and 8d) and experimental Eya3fl/fl; PDGFB-icreERT2 (FIGS. […]) mice. FIGS. 8d and 8e are magnified images of the regions indicated in 8b and 8c, respectively.
Next, treatment with an inhibitor of Eya3 was performed to test the effect on post-natal retinal angiogenesis. Briefly, 100 μM of compound 1a was injected into the eyes of post-natal mice, at P0.5 and P3. P5 retinas were then analyzed for effects on the retinal vasculature.

PTP1B, sequence (P18031 whole entry, species assumed, the tested form may be a part): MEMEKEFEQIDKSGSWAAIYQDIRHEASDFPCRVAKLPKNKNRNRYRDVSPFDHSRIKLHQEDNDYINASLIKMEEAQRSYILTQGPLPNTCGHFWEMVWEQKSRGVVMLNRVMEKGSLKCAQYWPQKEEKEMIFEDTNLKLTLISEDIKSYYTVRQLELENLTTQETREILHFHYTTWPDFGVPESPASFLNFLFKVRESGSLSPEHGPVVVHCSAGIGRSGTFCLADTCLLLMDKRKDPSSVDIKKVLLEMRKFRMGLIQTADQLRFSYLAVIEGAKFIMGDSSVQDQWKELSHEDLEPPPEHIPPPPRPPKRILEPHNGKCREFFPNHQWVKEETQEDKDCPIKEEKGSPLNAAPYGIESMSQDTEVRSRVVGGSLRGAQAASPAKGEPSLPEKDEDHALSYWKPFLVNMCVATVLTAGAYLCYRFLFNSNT

CCc1oc2ccccc2c1C(=O)c1cc(Br)c(O)c(Br)c1 [Compound 1, Benzbromarone, reference compound]
greater activity towards EYA3 than PTP1B (PTP1B): 4.7-6.5 fold
inhibition of tubulogenesis (HUVECs [1]): effective
tumor growth [2]: able to reduce tumor growth
EYA3-SIX2 interaction in presence of inhibitor (EYA3-SIX2 interaction): unaffected
migration of MCF10A(EYA2) cells (MCF10A-EYA2 cells): significantly inhibited cell migration
intersegmental vessels ([3]; 0.25 μM (lowest dose tested)): significant reduction of intersegmental vessels
defects in the developing vasculature [3]: Dose-dependent defects in the developing vasculature
formation of neovascular tufts [4]: Significant reduction in the formation of neovascular tufts
HUVEC cell proliferation (HUVECs [5]): no effect on cell proliferation
aortic ring sprouting (mouse aortic rings): shorter sprouts and significantly lower microvascular density
Vmax and Km as a function of inhibitor concentration [6]: both values decrease with increased inhibitor concentration
mode of inhibition of EYA3 (substrate titration) ([6]; increasing substrate concentration): not a competitive inhibitor

CCc1oc2ccccc2c1C(=O)c1ccc(O)cc1 [Compound 1a]
retinal vascular branch points (retinal vasculature): quantifiable decrease in branch points
greater activity towards EYA3 than PTP1B (PTP1B): over 100 fold
reduction of cell motility (MCF10A-EYA2 cells; 1 μM (lowest concentration tested)): over 50%
migration of MCF10A(EYA2) cells (MCF10A-EYA2 cells): significantly inhibited cell migration
number of intersegmental vessels [3]: reduced the number of intersegmental vessels, but were less potent
defects in the developing vasculature [3]: Dose-dependent defects in the developing vasculature
formation of neovascular tufts [4]: Significant reduction in the formation of neovascular tufts
HUVEC cell proliferation (HUVECs [5]): no effect on cell proliferation
aortic ring sprouting (mouse aortic rings): shorter sprouts and significantly lower microvascular density

CCCCc1oc2ccccc2c1C(=O)c1ccc(O)cc1 [Compound 1b]
greater activity towards EYA3 than PTP1B (PTP1B): 4.7-6.5 fold
inhibition of tubulogenesis (HUVECs [1]): effective
migration of MCF10A(EYA2) cells (MCF10A-EYA2 cells): significantly inhibited cell migration
number of intersegmental vessels [3]: reduced the number of intersegmental vessels, but were less potent
defects in the developing vasculature [3]: Dose-dependent defects in the developing vasculature
formation of neovascular tufts [4]: Significant reduction in the formation of neovascular tufts
HUVEC cell proliferation (HUVECs [5]): no effect on cell proliferation
aortic ring sprouting (mouse aortic rings): shorter sprouts and significantly lower microvascular density
